Experimental data taken from patent US6737383B1, “Herbicidal oxadiazolidines” (priority 1999, dated 2004).

Key:
[1] = tested on: cocklebur; test: Test B pre/postemergence cocklebur; type: in vivo, Xanthium strumarium
Method in brief: (§1)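 Herbicidal effect was estimated by eye on a ten-point control scale after plants spent twelve to sixteen days in a greenhouse following soil or foliar treatment. Foliar sprays targeted plants at one to four leaves; all doses were formulated in a non-phytotoxic solvent with surfactant.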

[2] = tested on: corn; test: Test B pre/postemergence corn; type: in vivo, Zea mays
Method in brief: as §1

[3] = tested on: crabgrass; test: Test B pre/postemergence crabgrass; type: in vivo, Digitaria sanguinalis
Method in brief: as §1

[4] = tested on: giant foxtail; test: Test B pre/postemergence giant foxtail; type: in vivo, Setaria faberii
Method in brief: as §1

[5] = tested on: morningglory; test: Test B pre/postemergence morningglory; type: in vivo, Ipomoea hederacea; settings: for Plant response rating, Morningglory: scale of 0 to 10 where 0 is no effect and 10 is complete control
Method in brief: as §1

[6] = tested on: pigweed; test: Test B pre/postemergence pigweed; type: in vivo, Amaranthus retroflexus; settings: for Plant response rating, Redroot pigweed: scale of 0 to 10 where 0 is no effect and 10 is complete control
Method in brief: as §1

[7] = tested on: rape; test: Test B pre/postemergence rape; type: in vivo, Brassica napus; settings: for Plant response rating, Rape: scale of 0 to 10 where 0 is no effect and 10 is complete control
Method in brief: as §1

[8] = tested on: soybean; test: Test B pre/postemergence soybean; type: in vivo, Glycine max; settings: for Plant response rating, Soybean: scale of 0 to 10 where 0 is no effect and 10 is complete control
Method in brief: as §1

[9] = tested on: sugar beet; test: Test B pre/postemergence sugar beet; type: in vivo, Beta vulgaris; settings: for Plant response rating, Sugarbeets: scale of 0 to 10 where 0 is no effect and 10 is complete control
Method in brief: as §1

[10] = tested on: velvetleaf; test: Test B pre/postemergence velvetleaf; type: in vivo, Abutilon theophrasti; settings: for Plant response rating, Velvetleaf: scale of 0 to 10 where 0 is no effect and 10 is complete control
Method in brief: as §1

[11] = tested on: wheat; test: Test B pre/postemergence wheat; type: in vivo, Triticum aestivum; settings: for Plant response rating, Wheat: scale of 0 to 10 where 0 is no effect and 10 is complete control
Method in brief: as §1

[12] = tested on: wild oat; test: Test B pre/postemergence wild oat; type: in vivo, Avena fatua; settings: for Plant response rating, Wild oats: scale of 0 to 10 where 0 is no effect and 10 is complete control
Method in brief: as §1

[13] = tested on: purple nutsedge; test: Test B pre/postemergence purple nutsedge; type: in vivo, Cyperus rotundus
Method in brief: as §1

[14] = tested on: rice; test: Test B flood test rice; type: in vivo, Oryza sativa
Method in brief: (§2)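 Each value is a visual injury score relative to controls, with 10 meaning complete control and 0 no effect. Evaluation took place twelve to sixteen days after the 2-leaf-stage plants were treated and kept in the greenhouse.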

[15] = tested on: smallflower flatsedge; test: Test B flood test smallflower flatsedge; type: in vivo, Cyperus difformis
Method in brief: as §2

[16] = tested on: duck salad; test: Test B flood test duck salad; type: in vivo, Heteranthera limosa
Method in brief: as §2

[17] = Postemergence, Rate 250 g/ha, scale 0 to 10
[18] = Postemergence, Rate 500 g/ha, scale of 0 to 10 where 0 is no effect and 10 is complete control
[19] = Preemergence, Rate 62 g/ha, scale of 0 to 10 where 0 is no effect and 10 is complete control
[20] = Preemergence, Rate 125 g/ha, scale of 0 to 10 where 0 is no effect and 10 is complete control
[21] = Preemergence, Rate 250 g/ha, scale 0 to 10, 0 is no effect, 10 is complete control
[22] = Preemergence, Rate 500 g/ha, scale 0 to 10, 0 is no effect, 10 is complete control
[23] = Rate 62 g/ha, Postemergence, scale 0 to 10, 0 no effect, 10 complete control
[24] = Rate 125 g/ha, Postemergence, scale 0 to 10, 0 is no effect, 10 is complete control
[25] = Rate 62 g/ha, flood test species, Pre-emergence, visual evaluation after twelve to sixteen days
[26] = Rate 125 g/ha, under heading Pre-emergence, flood test species, visual evaluation after twelve to sixteen days
[27] = Rate 250 g/ha, Pre-emergence (flood test species), scale 0 to 10, 0 is no effect, 10 is complete control
[28] = Rate 500 g/ha, Pre-emergence, flood test species, scale 0 to 10 (0 no effect, 10 complete control)

SMILES: CCC=CCn1c(=O)on(C(=O)N(c2ccccc2)C(C)C)c1=O [Compound 454]
- Cocklebur plant response rating [1, 17]: 0
- Cocklebur plant response rating [1, 18]: 0
- Plant response rating, Cocklebur [1, 19]: 0
- Plant response rating, Cocklebur [1, 20]: 0
- Cocklebur plant response rating [1, 21]: 0
- Cocklebur plant response rating [1, 22]: 0
- Cocklebur plant response rating [1, 23]: 0
- Cocklebur plant response rating [1, 24]: 0
- Corn plant response rating [2, 17]: 0
- Corn plant response rating [2, 18]: 0
- Plant response rating, Corn [2, 19]: 0
- Plant response rating, Corn [2, 20]: 0
- Corn plant response rating [2, 21]: 0
- Corn plant response rating [2, 22]: 3
- Corn plant response rating [2, 23]: 0
- Corn plant response rating [2, 24]: 0
- Crabgrass plant response rating [3, 17]: 3
- Crabgrass plant response rating [3, 18]: 9
- Plant response rating, Crabgrass [3, 19]: 2
- Plant response rating, Crabgrass [3, 20]: 3
- Crabgrass plant response rating [3, 21]: 8
- Crabgrass plant response rating [3, 22]: 9
- Crabgrass plant response rating [3, 23]: 2
- Giant foxtail plant response rating [4, 17]: 8
- Giant foxtail plant response rating [4, 18]: 9
- Plant response rating, Giant foxtail [4, 19]: 6
- Plant response rating, Giant foxtail [4, 20]: 9
- Giant foxtail plant response rating [4, 21]: 10
- Giant foxtail plant response rating [4, 22]: 10
- Giant foxtail plant response rating [4, 23]: 2
- Giant foxtail plant response rating [4, 24]: 2
- Morningglory plant response rating [5, 17]: 10
- Plant response rating, Morningglory ([5]; Preemergence, Rate 62 g/ha): 0
- Plant response rating, Morningglory ([5]; Preemergence, Rate 125 g/ha): 0
- Morningglory plant response rating [5, 21]: 0
- Morningglory plant response rating [5, 22]: 0
- Morningglory plant response rating [5, 23]: 7
- Morningglory plant response rating [5, 24]: 9
- Redroot pigweed plant response rating [6, 17]: 2
- Plant response rating, Redroot pigweed ([6]; Preemergence, Rate 62 g/ha): 0
- Plant response rating, Redroot pigweed ([6]; Preemergence, Rate 125 g/ha): 2
- Redroot pigweed plant response rating [6, 21]: 9
- Redroot pigweed plant response rating [6, 22]: 10
- Redroot pigweed plant response rating [6, 23]: 0
- Redroot pigweed plant response rating [6, 24]: 0
- Rape plant response rating [7, 17]: 0
- Plant response rating, Rape ([7]; Preemergence, Rate 62 g/ha): 0
- Plant response rating, Rape ([7]; Preemergence, Rate 125 g/ha): 0
- Rape plant response rating [7, 21]: 0
- Rape plant response rating [7, 22]: 0
- Rape plant response rating [7, 23]: 0
- Rape plant response rating [7, 24]: 0
- Soybean plant response rating [8, 17]: 2
- Plant response rating, Soybean ([8]; Preemergence, Rate 62 g/ha): 0
- Plant response rating, Soybean ([8]; Preemergence, Rate 125 g/ha): 0
- Soybean plant response rating [8, 21]: 0
- Soybean plant response rating [8, 22]: 0
- Soybean plant response rating [8, 23]: 1
- Soybean plant response rating [8, 24]: 2
- Sugarbeets plant response rating [9, 17]: 0
- Plant response rating, Sugarbeets ([9]; Preemergence, Rate 62 g/ha): 0
- Plant response rating, Sugarbeets ([9]; Preemergence, Rate 125 g/ha): 0
- Sugarbeets plant response rating [9, 21]: 0
- Sugarbeets plant response rating [9, 22]: 0
- Sugarbeets plant response rating [9, 23]: 0
- Sugarbeets plant response rating [9, 24]: 0
- Velvetleaf plant response rating [10, 17]: 0
- Plant response rating, Velvetleaf ([10]; Preemergence, Rate 62 g/ha): 0
- Plant response rating, Velvetleaf ([10]; Preemergence, Rate 125 g/ha): 0
- Velvetleaf plant response rating [10, 21]: 5
- Velvetleaf plant response rating [10, 22]: 6
- Velvetleaf plant response rating [10, 23]: 0
- Velvetleaf plant response rating [10, 24]: 0
- Wheat plant response rating [11, 17]: 0
- Plant response rating, Wheat ([11]; Preemergence, Rate 62 g/ha): 0
- Plant response rating, Wheat ([11]; Preemergence, Rate 125 g/ha): 0
- Wheat plant response rating [11, 21]: 0
- Wheat plant response rating [11, 22]: 0
- Wheat plant response rating [11, 23]: 0
- Wheat plant response rating [11, 24]: 0
- Wild oats plant response rating [12, 17]: 0
- Plant response rating, Wild oats ([12]; Preemergence, Rate 62 g/ha): 0
- Plant response rating, Wild oats ([12]; Preemergence, Rate 125 g/ha): 0
- Wild oats plant response rating [12, 21]: 0
- Wild oats plant response rating [12, 22]: 2
- Wild oats plant response rating [12, 23]: 0
- Wild oats plant response rating [12, 24]: 0
- Nutsedge plant response rating [13, 17]: 0
- Plant response rating, Nutsedge [13, 19]: 0
- Nutsedge plant response rating [13, 21]: 0
- Nutsedge plant response rating [13, 22]: 0
- Nutsedge plant response rating [13, 23]: 0
- Nutsedge plant response rating [13, 24]: 0
- Plant response rating, Rice (0 to 10 scale, 0 is no effect, 10 is complete control) [14, 25]: 0
- Rice plant response rating (0 to 10 scale, 0 is no effect, 10 is complete control) [14, 26]: 0
- Rice plant response rating [14, 27]: 0
- Rice plant response rating [14, 28]: 0
- Plant response rating, S. Flatsedge (0 to 10 scale, 0 is no effect, 10 is complete control) [15, 25]: 0
- S. Flatsedge plant response rating (0 to 10 scale, 0 is no effect, 10 is complete control) [15, 26]: 0
- S. Flatsedge plant response rating [15, 27]: 0
- S. Flatsedge plant response rating [15, 28]: 0
- Plant response rating, Ducksalad (0 to 10 scale, 0 is no effect, 10 is complete control) [16, 25]: 0
- Ducksalad plant response rating (0 to 10 scale, 0 is no effect, 10 is complete control) [16, 26]: 0
- Ducksalad plant response rating [16, 27]: 0
- Ducksalad plant response rating [16, 28]: 0
